# Experimental data taken from patent US20240197726A1, “NOVEL TETRAHYDROISOQUINOLINE ALKALOID COMPOUND CONTAINING MACROCYCLE” (THE UNIVERSITY OF TOKYO, priority 2021, published 2024).
# Where two headings read alike, the source gives them in different places.
# Tests used:
# Type in all cases: cell-based
# [1] = tested on: SNB-75 central nervous system cancer cells; assay: antitumor activity, sulforhodamine B cell growth assay, SNB-75; settings: SNB-75, drug exposure 48 hours, read-out: GI50 value: 50% growth inhibitory concentration
# Procedure, shortened: (§1)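 Cells were seeded in RPMI 1640 with 5% FBS, allowed to adhere overnight, then exposed to compound for 48 h. Growth was measured by sulforhodamine B staining at 525 nm, with a time-zero (T0) reading. Log GI50, TGI and LC50 were taken where % growth crossed 50, 0 and −50%.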
# [2] = tested on: MKN74 gastric cancer cells; assay: antitumor activity, sulforhodamine B cell growth assay, MKN74; settings: MKN74, drug exposure 48 hours, read-out: GI50 value: 50% growth inhibitory concentration
# Experimental: (§2) The THIQ compound containing a macrocyclic structure of the present invention was administered to various cancer cell lines, and the antitumor activity (Go value) was observed. Specifically, verification was performed according to the literature (Yamori, T.; Matsunaga, A.; Sato, S.; Yamazaki, K.; Komi, A.; Ishizu, K. et al. Cancer Res. 1999, 59, 4042) by the following procedure.
# (§3) Cells were plated at an appropriate density in a 96-well plate in RPMI 1640 together with 5% fetal bovine serum, and adhered overnight. The cells were exposed to a drug for 48 hours. Then, according to the sulforhodamine B assay described by Skehan et al (Skehan P., Storeng R., Scudiero D., Monks A., McMahon J., Vistica D., Warren J. T., Bokesch H., Kenney S., Boyd M. R. J Natl. Cancer Inst, 1990, 82, 1107-1112), the cell growth rate was measured. The absorbance of the control well (C) and the test well (T) was measured at 525 nm. In addition, the time at which the drug was added was set as time 0, and the absorbance for the test well (T0) was measured. Using these measured values, the cell growth inhibitory effect (% growth=PG) was calculated by the following formula at each concentration of the drug.
# (§4) (T<T0): PG=100×[(T−T0)/T]
# (§5) The PG values determined above for each cell line were plotted against the concentration (logarithm) on a semi-logarithmic graph, and summarized for each visceral cancer. Concentrations at which the dose-response curve of each cell line crossed the horizontal line of PG=50%, 0%, or −50% were calculated. These concentrations were defined as Log GI50, Log TGI, and Log LC50. Actually, using two data points of the drug concentration before and after crossing each horizontal line, the drug concentration (logarithmic value) at the intersection of the straight line connecting the two points and the horizontal line for each PG was calculated.
# [3] = tested on: SF-268 central nervous system cancer cells; assay: antitumor activity, sulforhodamine B cell growth assay, SF-268; settings: SF-268, drug exposure 48 hours, read-out: GI50 value: 50% growth inhibitory concentration
# Experimental: as §2, §3, §4, §5
# [4] = tested on: HCC2998 colorectal cancer cells; assay: antitumor activity, sulforhodamine B cell growth assay, HCC2998; settings: HCC2998, drug exposure 48 hours, read-out: GI50 value: 50% growth inhibitory concentration
# Procedure, shortened: as §1
# [5] = tested on: PC-3 prostate cancer cells; assay: antitumor activity, sulforhodamine B cell growth assay, PC-3; settings: PC-3, drug exposure 48 hours; read-out: GI50 value: 50% growth inhibitory concentration
# Experimental: as §2, §3, §4, §5
# [6] = tested on: U251 central nervous system cancer cells; assay: antitumor activity, sulforhodamine B cell growth assay, U251; settings: U251, drug exposure 48 hours, read-out: GI50 value: 50% growth inhibitory concentration
# Procedure, shortened: as §1
# [7] = tested on: KM-12 colorectal cancer cells; assay: antitumor activity, sulforhodamine B cell growth assay, KM-12; settings: KM-12, drug exposure 48 hours, read-out: GI50 value: 50% growth inhibitory concentration
# Procedure, shortened: as §1
# DMS273 lung cancer cells = assay: antitumor activity, sulforhodamine B cell growth assay, DMS273; settings: DMS273, drug exposure 48 hours, read-out: GI50 value: 50% growth inhibitory concentration
# Procedure, shortened: as §1
# SK-OV-3 cancer cells = assay: antitumor activity, sulforhodamine B cell growth assay, SK-OV-3; settings: SK-OV-3, drug exposure 48 hours, read-out: GI50 value: 50% growth inhibitory concentration
# Procedure, shortened: as §1
# A549 lung cancer cells = assay: antitumor activity, sulforhodamine B cell growth assay, A549; settings: A549, drug exposure 48 hours, read-out: GI50 value: 50% growth inhibitory concentration
# Procedure, shortened: as §1
# [8] = tested on: HBC-5 breast cancer cells; assay: antitumor activity, sulforhodamine B cell growth assay, HBC-5; settings: HBC-5, drug exposure 48 hours, read-out: GI50 value: 50% growth inhibitory concentration
# Procedure, shortened: as §1
# [9] = tested on: SF-539 central nervous system cancer cells; assay: antitumor activity, sulforhodamine B cell growth assay, SF-539; settings: SF-539, drug exposure 48 hours, read-out: GI50 value: 50% growth inhibitory concentration
# Procedure, shortened: as §1
# [10] = tested on: NCI-H460 lung cancer cells; assay: antitumor activity, sulforhodamine B cell growth assay, NCI-H460; settings: NCI-H460, drug exposure 48 hours, read-out: GI50 value: 50% growth inhibitory concentration
# Procedure, shortened: as §1
# [11] = tested on: NCI-H23 lung cancer cells; assay: antitumor activity, sulforhodamine B cell growth assay, NCI-H23; settings: NCI-H23, drug exposure 48 hours, read-out: GI50 value: 50% growth inhibitory concentration
# Experimental: as §2, §3, §4, §5
# [12] = tested on: MKN1 gastric cancer cells; assay: antitumor activity, sulforhodamine B cell growth assay, MKN1; settings: MKN1, drug exposure 48 hours, read-out: GI50 value: 50% growth inhibitory concentration
# Procedure, shortened: as §1
# OVCAR-3 cancer cells = assay: antitumor activity, sulforhodamine B cell growth assay, OVCAR-3; settings: OVCAR-3, drug exposure 48 hours, read-out: GI50 value: 50% growth inhibitory concentration
# Experimental: as §2, §3, §4, §5
# [13] = tested on: MCF-7 breast cancer cells; assay: antitumor activity, sulforhodamine B cell growth assay, MCF-7; settings: MCF-7, drug exposure 48 hours, read-out: GI50 value: 50% growth inhibitory concentration
# Experimental: as §2, §3, §4, §5
# LOX-IMVI melanoma cells = assay: antitumor activity, sulforhodamine B cell growth assay, LOX-IMVI; settings: LOX-IMVI, drug exposure 48 hours, read-out: GI50 value: 50% growth inhibitory concentration
# Procedure, shortened: as §1
# [14] = tested on: DU-145 prostate cancer cells; assay: antitumor activity, sulforhodamine B cell growth assay, DU-145; settings: DU-145, drug exposure 48 hours, read-out: GI50 value: 50% growth inhibitory concentration
# Procedure, shortened: as §1
# OVCAR-8 cancer cells = assay: antitumor activity, sulforhodamine B cell growth assay, OVCAR-8; settings: OVCAR-8, drug exposure 48 hours, read-out: GI50 value: 50% growth inhibitory concentration
# Experimental: as §2, §3, §4, §5
# [15] = tested on: BSY-1 breast cancer cells; assay: antitumor activity, sulforhodamine B cell growth assay, BSY-1; settings: BSY-1, drug exposure 48 hours; read-out: GI50 value: 50% growth inhibitory concentration
# Procedure, shortened: as §1
# [16] = tested on: various cancer cell lines; assay: Verification of antitumor activity, whole panel of cancer cell lines; settings: in words, compared with Cyanosafracin B
# Experimental: as §2, §3, §4, §5
smiles,measurement,setting,value
COc1c(C)cc2c(c1O)[C@@H]1[C@@H]3Cc4c5c(C)c6c(c4C(CNC(=O)[C@H](C)NC(=O)OCC4C=C(CO5)Cn5c(=O)n(-c7ccccc7)c(=O)n54)N3[C@@H](C#N)[C@H](C2)N1C)OCO6 [Compound 16],GI50,[1]; Homo sapiens,0.0099 µM
same,GI50,"[2]; Homo sapiens, MKN-74",0.032 µM
same,GI50,[3]; Homo sapiens,0.013 µM
same,GI50,"[4]; Homo sapiens, HCC 2998",0.017 µM
same,GI50,[5],0.026 µM
same,GI50,"[6]; Homo sapiens, U-251",0.0058 µM
same,GI50,"[7]; Homo sapiens, KM12",0.014 µM
same,GI50,"DMS273 lung cancer cells; Homo sapiens, DMS-273",0.015 µM
same,GI50,SK-OV-3 cancer cells; Homo sapiens,0.034 µM
same,GI50,A549 lung cancer cells; Homo sapiens,0.051 µM
same,GI50,[8]; HBC5,0.0069 µM
same,GI50,[9]; Homo sapiens,0.0082 µM
same,GI50,[10]; Homo sapiens,0.036 µM
same,GI50,[11]; Homo sapiens,0.02 µM
same,GI50,"[12]; Homo sapiens, MKN-1",0.0048 µM
same,GI50,OVCAR-3 cancer cells; Homo sapiens,0.0064 µM
same,GI50,"[13]; Homo sapiens, MCF7",0.0044 µM
same,GI50,LOX-IMVI melanoma cells; Homo sapiens,0.0033 µM
same,GI50,[14]; Homo sapiens,0.041 µM
same,GI50,OVCAR-8 cancer cells; Homo sapiens,0.021 µM
same,GI50,[15],0.0031 µM
same,antitumor activity,[16],better antitumor activity than Cyanosafracin B
COc1c(C)cc2c(c1O)C1C3Cc4c5c(C)c6c(c4C(CNC(=O)C(C)NC(=O)OCC4C=C(CO5)CC5C(=O)N(c7ccccc7)C(=O)C45)N3C(C#N)C(C2)N1C)OCO6 (centres unmarked) [Compound 18],GI50,[1],0.05 µM
same,GI50,[2],0.12 µM
same,GI50,[3],0.074 µM
same,GI50,[4],0.095 µM
same,GI50,[5],0.17 µM
same,GI50,[6],0.05 µM
same,GI50,[7],0.1 µM
same,GI50,DMS273 lung cancer cells,0.1 µM
same,GI50,SK-OV-3 cancer cells,0.41 µM
same,GI50,A549 lung cancer cells,0.54 µM
same,GI50,[8],0.038 µM
same,GI50,[9],0.033 µM
same,GI50,[10],0.26 µM
same,GI50,[11],0.11 µM
same,GI50,[12],0.05 µM
same,GI50,OVCAR-3 cancer cells,0.043 µM
same,GI50,[13],0.022 µM
same,GI50,LOX-IMVI melanoma cells,0.027 µM
same,GI50,[14],0.33 µM
same,GI50,OVCAR-8 cancer cells,0.13 µM
same,GI50,[15],0.019 µM
same,antitumor activity,[16],better antitumor activity than Cyanosafracin B
